What is called melting point is the temperature of the solid-liquid transition.

System in the first data set: not given
Test: not given
Conditions: not given
Compound `CN1C(=O)C2(CC2c2ccccc2)N(C)C(=O)/C1=C/c1cccnc1C#N` (single isomer, unassigned) [Example 34] displayed a melting point of 224 °C.

Consider `CN1C(=O)C2(CC2c2ccccc2)N(C)C(=O)/C1=C/c1cccnc1Cl` (stereo not shown) [Example 33], for which the melting point amounted to 169 °C. Same read-out and setting: with `CN1C(=O)C2(CC2c2ccccc2)N(C)C(=O)/C1=C/c1ccccc1[N+](=O)[O-]` (stereo not shown) [Example 30, 6-[1-(2-Nitrophenyl)-meth-(Z)-ylidene]-4,7-dimethyl-1-phenyl-4,7-diazaspiro[2.5]octane-5,8-dione] the figure was 145 °C; with `CN1C(=O)c2cc3cccnc3n2C(=O)C1(C)Cc1ccccc1` (stereo not shown) [Example 24], 180 °C.

`CN1C(=O)c2cc3c([N+](=O)[O-])ccc(F)c3n2C(=O)C1(C)Cc1ccccc1` (stereo not shown) [Example 23]: the melting point was 170 to 172 °C.

Compound `CN1C(=O)C2(CC2c2ccccc2)N(C)C(=O)/C1=C/c1ccccc1Br` (stereo not shown) [Example 31] returned a melting point of 78 °C. Same read-out and setting: with `CN1C(=O)C2(CC2c2ccccc2)N(C)C(=O)/C1=C/c1ccccc1C#N` (single isomer, unassigned) [Example 32] the figure was 190 °C.

The subject of a further data set is APESV (Apera spica-venti, windgrass). Put plainly: greenhouse experiment, pre-emergence herbicidal activity against APESV. Conditions: pre-emergence method, application rate 0.5 kg/ha; scale from 0 to 100. It is filed as in vivo. An excerpt: The seeds of the test plants were sown separately for each species. For the pre-emergence treatment, the active ingredients, which had been suspended or emulsified in water, were applied directly after sowing by means of finely distributing nozzles. The containers were irrigated gently to promote germination and growth and subsequently covered with transparent plastic hoods until the plants had rooted. This cover caused uniform germination of the test plants, unless this has been impaired by the active ingredients. Depending on the species, the plants were kept at 10-25° C. or 20-35° C. The test period extended over 2 to 4 weeks. During this time, the plants were tended, and their response to the individual treatments was evaluated. Evaluation was carried out using a scale from 0 to 100. 100 means no emergence of the plants, or complete destruction of at least the aerial moieties, and 0 means no damage, or normal course of growth. A good herbicidal activity is given at values of at least 70 and a very good herbicidal activity is given at values of at least 85. The plants used in the greenhouse experiments belonged to the following species: [table]
Regarding `CN1C(=O)C(Cc2ccccc2)(C(=O)C(F)(F)F)N(C)C(=O)/C1=C/c1ccccc1C#N` (stereo not shown) [Example 4, 2-[5-Trifluoroacetyl-5-benzyl-1,4-dimethyl-3,6-dioxopiperazin-(Z)-2-ylidenemethyl]benzonitrile], the “herbicidal activity against APESV” value is recorded as “good to very good”. As to `CSC1(Cc2ccccc2)C(=O)N(C)C(=Cc2ccccc2C#N)C(=O)N1C` (stereo not shown) [1a/1b, 2-(5-Benzyl-1,4-dimethyl-5-methylsulfanyl-3,6-dioxopiperazin-2-ylidenemethyl)benzonitrile], the “herbicidal activity against APESV” value is recorded as “good to very good”.

The data set is the same for the next values; noted with them: pre-emergence method, application rate 1.0 kg/ha; scale from 0 to 100.
For `C=CCC1(Cc2ccccc2)C(=O)N(C)/C(=C\c2ccccc2C#N)C(=O)N1C` (stereo not shown) [Example 2, 2-(5-Benzyl-1,4-dimethyl-5-allyl-3,6-dioxo-piperazin-(Z)-2-ylidenemethyl)-benzonitrile], the “herbicidal activity against APESV” value is “very good (a very good herbicidal activity is given at values of at least 85)”.

(Values after patent publication US20100167933A1, “Piperazine Compounds With Herbicidal Action” (priority 2007, published 2010).)
